In the oligonucleotide strings, read from the 5' end, every base follows the letter of its sugar. An asterisk marks phosphorothioate; unmarked linkages are phosphodiester. Other units and linkages are bracketed, terminal groups are in braces. A string of capitals states the bases alone. m = 2'-O-methyl
Biological target: T1, human TLR9 (Homo sapiens, UniProt Q9NR96)
T1 construct: HA; host or cells: 293XL-hTLR9-HA (HEK293)
T1 sequence (Q9NR96 26-1032): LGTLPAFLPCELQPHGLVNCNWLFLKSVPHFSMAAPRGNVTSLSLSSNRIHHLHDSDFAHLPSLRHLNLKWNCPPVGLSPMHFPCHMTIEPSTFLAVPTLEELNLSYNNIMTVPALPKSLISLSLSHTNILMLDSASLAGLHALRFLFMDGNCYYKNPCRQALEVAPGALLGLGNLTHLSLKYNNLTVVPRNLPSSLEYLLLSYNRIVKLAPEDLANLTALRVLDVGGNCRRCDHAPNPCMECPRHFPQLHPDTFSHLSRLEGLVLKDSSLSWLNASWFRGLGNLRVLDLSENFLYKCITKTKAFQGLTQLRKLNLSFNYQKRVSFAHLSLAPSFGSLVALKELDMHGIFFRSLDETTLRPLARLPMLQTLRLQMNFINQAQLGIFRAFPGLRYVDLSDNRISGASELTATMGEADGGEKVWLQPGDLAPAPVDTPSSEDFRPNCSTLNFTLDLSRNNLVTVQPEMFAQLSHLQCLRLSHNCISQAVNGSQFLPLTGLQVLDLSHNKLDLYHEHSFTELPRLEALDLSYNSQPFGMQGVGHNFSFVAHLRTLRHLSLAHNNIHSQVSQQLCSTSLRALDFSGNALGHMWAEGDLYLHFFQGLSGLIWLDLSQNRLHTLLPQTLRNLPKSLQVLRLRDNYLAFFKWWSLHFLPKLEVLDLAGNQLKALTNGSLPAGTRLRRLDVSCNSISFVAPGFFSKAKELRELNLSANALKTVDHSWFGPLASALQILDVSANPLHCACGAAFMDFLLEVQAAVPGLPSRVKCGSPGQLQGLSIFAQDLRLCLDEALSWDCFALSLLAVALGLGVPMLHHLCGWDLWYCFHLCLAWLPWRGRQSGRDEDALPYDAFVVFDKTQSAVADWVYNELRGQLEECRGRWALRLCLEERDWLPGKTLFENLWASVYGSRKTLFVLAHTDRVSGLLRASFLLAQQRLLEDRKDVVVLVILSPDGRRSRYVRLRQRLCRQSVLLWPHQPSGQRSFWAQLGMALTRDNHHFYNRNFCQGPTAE
Test: HEK-TLR9 NF-κB-luciferase reporter, ODN2006 stimulation
Format: cell-based
Settings: for TLR9 2 uM: 3mer 2'OMe ASO at 2 uM, HEK-TLR9, value relative to Ligand only = 1.000, NT = 0.000; for TLR9 100 nM (averaged NF-κB-Luciferase level relative to ODN2006 condition): ASO 100 nM; for TLR9 100 nM (averaged NF-κB-Luciferase level relative to ODN2006 condition) / TLR9 500 nM (averaged NF-κB-Luciferase level relative to ODN2006 condition): relative to ODN2006 only, given as fraction; for TLR9 500 nM (averaged NF-κB-Luciferase level relative to ODN2006 condition): ASO 500 nM

dC*dA*dC (CAC; listed as RNA, chemistry not fully specified)
TLR9 2 uM: 0.830

UUA (mU*mU*mA)
TLR9 2 uM: 0.912

CGU (mC*mG*mU)
TLR9 2 uM: 1.237

TGTGATGGCCTCCCAT (antisense; LNA-modified, pattern not given here) [HPRT LNA-334 V1]
TLR9 100 nM (averaged NF-κB-Luciferase level relative to ODN2006 condition): 0.818 | TLR9 500 nM (averaged NF-κB-Luciferase level relative to ODN2006 condition): 0.431

GTCTTGGCTTCGTGGA (antisense; LNA-modified, pattern not given here) [MB21D1-522 LNA V1]
TLR9 100 nM (averaged NF-κB-Luciferase level relative to ODN2006 condition): 0.745 | TLR9 500 nM (averaged NF-κB-Luciferase level relative to ODN2006 condition): 0.392

GGCTGGAATCCGAGTT (antisense; LNA-modified, pattern not given here) [EGFR-4705 LNA KL]
TLR9 100 nM (averaged NF-κB-Luciferase level relative to ODN2006 condition): 1.051 | TLR9 500 nM (averaged NF-κB-Luciferase level relative to ODN2006 condition): 0.492

CCU (mC*mC*mU)
TLR9 2 uM: 1.180

UAA (mU*mA*mA)
TLR9 2 uM: 1.176

mUmCmG (antisense mU*mC*mG) [660-3b]
TLR9 2 uM: 0.514

UCU (mU*mC*mU)
TLR9 2 uM: 0.876

dC*dG*dA (CGA; listed as DNA, chemistry not fully specified)
TLR9 2 uM: 1.061

GATAGCACCTTCAGCA (antisense; LNA-modified, pattern not given here) [CTNN2B-1294 LNA KL]
TLR9 100 nM (averaged NF-κB-Luciferase level relative to ODN2006 condition): 0.804 | TLR9 500 nM (averaged NF-κB-Luciferase level relative to ODN2006 condition): 0.560

UAC (mU*mA*mC)
TLR9 2 uM: 0.997

dC*dC*dC (CCC; listed as DNA, chemistry not fully specified)
TLR9 2 uM: 1.069

mUmGmA (mU*mG*mA) [UGA, 3-mer 2′OMe PS oligo]
TLR9 2 uM: 1.034

Source: patent publication US20240384268A1, “Oligonucleotides” (Hudson Institute of Medical Research, priority 2021, published 2024)
